The results in this text go back to US12612410B2 (CHILDREN'S HOSPITAL MEDICAL CENTER, priority 2020, dated 2026).

One test deals with MOLM14 D835Y cells. The test is described as follows: MOLM14 D835Y cell viability assay (Cell Titer Glo). Type of test: cell-based. The method, boiled down:
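MOLM14 cells carrying FLT3 D835Y or F691L were seeded at 1000 cells/well in RPMI-1640 with 20% FBS and dosed at 22 concentrations, 1:2 dilutions from 10 μM. Viability after 48 h by Cell Titer Glo luminescence; 2.3 μM bortezomib as cytotoxic control.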
In general terms: Cellular ATP, detected with luciferase, serves as a proxy for viable cell number.

In another test the target is T1, FLT3 (Homo sapiens, UniProt P36888).
T1 sequence (P36888 27-993): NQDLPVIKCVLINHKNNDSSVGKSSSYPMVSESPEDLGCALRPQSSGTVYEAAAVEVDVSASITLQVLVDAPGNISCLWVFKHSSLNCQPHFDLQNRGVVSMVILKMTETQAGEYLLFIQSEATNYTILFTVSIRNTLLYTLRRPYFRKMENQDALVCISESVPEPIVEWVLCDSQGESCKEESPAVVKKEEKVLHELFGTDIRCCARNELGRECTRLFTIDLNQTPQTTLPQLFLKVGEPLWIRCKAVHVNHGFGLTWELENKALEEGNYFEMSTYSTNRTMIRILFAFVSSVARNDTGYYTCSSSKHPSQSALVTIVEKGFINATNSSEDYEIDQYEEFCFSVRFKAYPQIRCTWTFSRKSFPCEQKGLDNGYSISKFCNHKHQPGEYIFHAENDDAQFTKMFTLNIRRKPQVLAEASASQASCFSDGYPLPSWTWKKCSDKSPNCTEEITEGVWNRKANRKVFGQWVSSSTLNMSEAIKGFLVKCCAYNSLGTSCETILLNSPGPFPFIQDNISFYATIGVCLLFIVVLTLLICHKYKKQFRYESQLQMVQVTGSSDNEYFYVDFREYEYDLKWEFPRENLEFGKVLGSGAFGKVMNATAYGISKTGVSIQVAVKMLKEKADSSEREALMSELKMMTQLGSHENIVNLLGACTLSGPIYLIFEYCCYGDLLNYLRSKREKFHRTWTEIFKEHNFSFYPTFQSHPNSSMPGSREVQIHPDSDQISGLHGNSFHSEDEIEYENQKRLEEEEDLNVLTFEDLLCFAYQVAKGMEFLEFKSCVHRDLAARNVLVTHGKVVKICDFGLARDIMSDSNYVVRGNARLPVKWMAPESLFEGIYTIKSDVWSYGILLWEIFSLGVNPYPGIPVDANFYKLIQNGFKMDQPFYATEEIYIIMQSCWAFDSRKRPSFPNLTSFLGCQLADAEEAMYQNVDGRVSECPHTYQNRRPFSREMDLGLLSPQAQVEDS
The test is described as follows: RBC HotSpot Kinase Assay, FLT3. Type of test: biochemical. Further details: purchased Reaction Biology (RBC), HotSpot kinase assay. The settings on record: isolated kinase, 33P-ATP. The method, boiled down:
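Kinase domain constructs, possibly truncated, were assayed radiometrically with 33P-ATP and substrate after 20 min compound preincubation, reacting 2 h at room temp.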

Bounds are passed on as bounds.

As a reminder, the IC50 is the concentration needed to halve the response being measured. With `CC(O)(c1cn2c(-c3cccc(N[C@H]4CNC[C@@H]4F)n3)cnc2cn1)C(F)(F)F` (single isomer, unassigned) [Compound 77], the IC50 in the test on MOLM14 D835Y cells (48 hours) was determined as 106 nM; at FLT3 it was 0.9 nM.

`CC(O)(c1cn2c(-c3cccc(N[C@H]4CNC[C@@H]4F)n3)cnc2cn1)C(F)(F)F` (single isomer, unassigned) [Compound 78]: the IC50 in the test with MOLM14 D835Y cells (48 hours) was 47 nM; against FLT3 it was less than 0.5 nM.

`CC(O)(c1cn2c(-c3cccc(N[C@H]4CNCC[C@@H]4F)n3)cnc2cn1)C(F)(F)F` (single isomer, unassigned) [Compound 80]: the IC50 in the test on MOLM14 D835Y cells (Homo sapiens, MOLM-14, 48 h) was 68 nM; at FLT3, 0.6 nM.

With `CC(O)(c1cn2c(-c3cccc(N[C@@H]4CCCNC4)n3)cnc2cn1)C(F)(F)F` (single isomer, unassigned) [Compound 81], the IC50 with MOLM14 D835Y cells (Homo sapiens, MOLM-14, 48 h) is 30 nM; against FLT3, less than 0.5 nM.

For the molecule `CC(O)(c1cn2c(-c3cccc(N[C@H]4CNCC[C@@H]4F)n3)cnc2cn1)C(F)(F)F` (single isomer, unassigned) [Compound 82], the figures for the IC50 with MOLM14 D835Y cells (48 hours) and on FLT3 were 34 nM and less than 0.5 nM, respectively.

Consider `CC1(c2cn3c(-c4cccc(N[C@H]5CNC[C@@H]5F)n4)cnc3cn2)CC1` [Compound 1, N-((3S,4S)-4-fluoropyrrolidin-3-yl)-6-(6-(1-methylcyclopropyl)imidazo[1,2-a]pyrazin-3-yl)pyridin-2-amine], for which the IC50 in the test on MOLM14 D835Y cells (Homo sapiens, MOLM-14, 48 h) came to 18 nM; against FLT3, 0.6 nM.

With `CC1(c2cn3c(-c4cccc(N[C@@H]5CCNC5)n4)cnc3cn2)CC1` [Compound 3, (R)-6-(6-(1-methylcyclopropyl)imidazo[1,2-a]pyrazin-3-yl)-N-(pyrrolidin-3-yl)pyridin-2-amine], the IC50 amounted to 6 nM in the test with MOLM14 D835Y cells (Homo sapiens, MOLM-14, 48 h) and 0.7 nM against FLT3.

`CC1(c2cn3c(-c4cccc(N[C@H]5CNCC56CC6)n4)cnc3cn2)CC1` [Compound 5, (R)-N-(6-(6-(1-methylcyclopropyl)imidazo[1,2-a]pyrazin-3-yl)pyridin-2-yl)-5-azaspiro[2.4]heptan-7-amine]: the IC50 in the test on MOLM14 D835Y cells (Homo sapiens, MOLM-14, 48 h) was 2 nM; against FLT3, less than 0.5 nM.

In the case of `FC(F)(F)C1(c2cn3c(-c4cccc(N[C@@H]5CCNC5)n4)cnc3cn2)CC1` [Compound 10, (R)-N-(pyrrolidin-3-yl)-6-(6-(1-(trifluoromethyl)cyclopropyl)imidazo[1,2-a]pyrazin-3-yl)pyridin-2-amine], the concentration for half-maximal inhibition (IC50) with MOLM14 D835Y cells (Homo sapiens, MOLM-14, 48 h) is 14 nM; on FLT3, less than 0.5 nM.

Take `FC(F)c1cn2c(-c3cccc(N[C@H]4CNC[C@@H]4F)n3)cnc2cn1` [Compound 16, 6-(6-(difluoromethyl)imidazo[1,2-a]pyrazin-3-yl)-N-((3S,4S)-4-fluoropyrrolidin-3-yl)pyridin-2-amine]: the IC50 in the test on MOLM14 D835Y cells (Homo sapiens, MOLM-14, 48 h) is 21 nM; on FLT3 it was less than 0.5 nM.

As for `FC(F)c1cn2c(-c3cccc(N[C@H]4CNCC[C@@H]4F)n3)cnc2cn1` [Compound 25, 6-(6-(difluoromethyl)imidazo[1,2-a]pyrazin-3-yl)-N-((3S,4S)-4-fluoropiperidin-3-yl)pyridin-2-amine], the IC50 with MOLM14 D835Y cells (Homo sapiens, MOLM-14, 48 h) was 9 nM; against FLT3, less than 0.5 nM.

As for `CC(C)(O)c1cn2c(-c3cccc(N[C@@H]4CCCNC4)n3)cnc2cn1` [Compound 30, (R)-2-(3-(6-(piperidin-3-ylamino)pyridin-2-yl)imidazo[1,2-a]pyrazin-6-yl)propan-2-ol], the IC50 in the test on MOLM14 D835Y cells (Homo sapiens, MOLM-14, 48 h) was 75 nM; against FLT3, less than 0.5 nM.

With `CC(C)(O)c1cn2c(-c3cccc(N[C@H]4CNCC[C@@H]4F)n3)cnc2cn1` [Compound 31, 2-(3-(6-(((3S,4S)-4-fluoropiperidin-3-yl)amino)pyridin-2-yl)imidazo[1,2-a]pyrazin-6-yl)propan-2-ol], the IC50 was 63 nM with MOLM14 D835Y cells (Homo sapiens, MOLM-14, 48 h) and less than 0.5 nM against FLT3.

On to `CC(C)(O)c1cn2c(-c3nc(N[C@H]4CNC[C@@H]4F)c(F)cc3F)cnc2cn1` [Compound 33, 2-(3-(3,5-difluoro-6-(((3S,4S)-4-fluoropyrrolidin-3-yl)amino)pyridin-2-yl)imidazo[1,2-a]pyrazin-6-yl)propan-2-ol], for which the IC50 in the test on MOLM14 D835Y cells (Homo sapiens, MOLM-14, 48 h) was determined as 168 nM; at FLT3 it was 0.6 nM.

For the molecule `CC(C)(O)c1cn2c(-c3nc(N[C@@H]4CCCNC4)c(F)cc3F)cnc2cn1` [Compound 34, (R)-2-(3-(3,5-difluoro-6-(piperidin-3-ylamino)pyridin-2-yl)imidazo[1,2-a]pyrazin-6-yl)propan-2-ol], the IC50 was 106 nM in the test on MOLM14 D835Y cells (Homo sapiens, MOLM-14, 48 h) and 4 nM at FLT3.

Regarding `CC(C)(O)c1cn2c(-c3nc(N[C@H]4CNCC[C@@H]4F)c(F)cc3F)cnc2cn1` [Compound 35, 2-(3-(3,5-difluoro-6-(((3S,4S)-4-fluoropiperidin-3-yl)amino)pyridin-2-yl)imidazo[1,2-a]pyrazin-6-yl)propan-2-ol], the half-maximal inhibitory concentration (IC50) in the test with MOLM14 D835Y cells (Homo sapiens, MOLM-14, 48 h) came to 94 nM; against FLT3 it was 1 nM.

Take `FC(F)(F)COc1cn2c(-c3cccc(N[C@@H]4CCNC4)n3)cnc2cn1` [Compound 38, (R)-N-(pyrrolidin-3-yl)-6-(6-(2,2,2-trifluoroethoxy)imidazo[1,2-a]pyrazin-3-yl)pyridin-2-amine]: the IC50 with MOLM14 D835Y cells (Homo sapiens, MOLM-14, 48 h) was 23 nM; at FLT3 it was less than 0.5 nM.

Consider `Cn1cc(-c2cn3c(-c4cccc(N[C@@H]5CCCNC5)n4)cnc3cn2)cn1` [Compound 43, (R)-6-(6-(1-methyl-1H-pyrazol-4-yl)imidazo[1,2-a]pyrazin-3-yl)-N-(piperidin-3-yl)pyridin-2-amine], for which the 50% inhibitory concentration (IC50) with MOLM14 D835Y cells (Homo sapiens, MOLM-14, 48 h) was 8 nM; on FLT3, less than 0.5 nM.

Turning to `F[C@H]1CNC[C@@H]1Nc1cccc(-c2cnc3cnc(C4CC4)cn23)n1` [Compound 50, 6-(6-cyclopropylimidazo[1,2-a]pyrazin-3-yl)-N-((3S,4S)-4-fluoropyrrolidin-3-yl)pyridin-2-amine], the IC50 is 24 nM with MOLM14 D835Y cells (Homo sapiens, MOLM-14, 48 h) and 0.6 nM on FLT3.

As for `F[C@H]1CCNC[C@@H]1Nc1cccc(-c2cnc3cnc(C4CC4)cn23)n1` [Compound 51, 6-(6-cyclopropylimidazo[1,2-a]pyrazin-3-yl)-N-((3S,4S)-4-fluoropiperidin-3-yl)pyridin-2-amine], the IC50 is 9 nM with MOLM14 D835Y cells (Homo sapiens, MOLM-14, 48 h) and less than 0.5 nM against FLT3.

In the case of `Cn1cc(-c2cn3c(-c4cccc(N[C@H]5CNC[C@@H]5F)n4)cnc3cn2)cn1` [Compound 52, N-((3S,4S)-4-fluoropyrrolidin-3-yl)-6-(6-(1-methyl-1H-pyrazol-4-yl)imidazo[1,2-a]pyrazin-3-yl)pyridin-2-amine], the IC50 in the test on MOLM14 D835Y cells (Homo sapiens, MOLM-14, 48 h) is 11 nM; against FLT3, less than 0.5 nM.

Turning to `FC(F)COc1cn2c(-c3cccc(N[C@H]4CNC[C@@H]4F)n3)cnc2cn1` [Compound 58, 6-(6-(2,2-difluoroethoxy)imidazo[1,2-a]pyrazin-3-yl)-N-((3S,4S)-4-fluoropyrrolidin-3-yl)pyridin-2-amine], the IC50 is 30 nM in the test on MOLM14 D835Y cells (Homo sapiens, MOLM-14, 48 h) and 0.7 nM against FLT3.

On to `O=S1(=O)CCCN1c1cn2c(-c3cccc(N[C@H]4CNCC[C@@H]4F)n3)cnc2cn1` [Compound 97, 2-(3-(6-(((3S,4S)-4-fluoropiperidin-3-yl)amino)pyridin-2-yl)imidazo[1,2-a]pyrazin-6-yl)isothiazolidine 1,1-dioxide], for which the IC50 came out at 5 nM in the test with MOLM14 D835Y cells (Homo sapiens, MOLM-14, 48 h) and 0.6 nM against FLT3.

As for `O=C1CCCN1c1cn2c(-c3nc(N[C@H]4CNCC[C@@H]4F)c(F)cc3F)cnc2cn1` [Compound 107, 1-[3-[3,5-difluoro-6-[[(3S,4S)-4-fluoro-3-piperidyl]amino]-2-pyridyl]imidazo[1,2-a]pyrazin-6-yl]pyrrolidin-2-one], the IC50 with MOLM14 D835Y cells (Homo sapiens, MOLM-14, 48 h) was 21 nM; against FLT3, 1 nM.

`O=C1CCCN1c1cn2c(-c3nc(N[C@@H]4CCCNC4)c(F)cc3F)cnc2cn1` [Compound 108, (R)-1-(3-(3,5-difluoro-6-(piperidin-3-ylamino)pyridin-2-yl)imidazo[1,2-a]pyrazin-6-yl)pyrrolidin-2-one]: the IC50 came out at 26 nM in the test with MOLM14 D835Y cells (Homo sapiens, MOLM-14, 48 h) and 0.9 nM against FLT3.

Consider `O=C1NCCN1c1cn2c(-c3cccc(N[C@H]4CNCC[C@@H]4F)n3)cnc2cn1` [Compound 118, 1-(3-(6-(((3S,4S)-4-fluoropiperidin-3-yl)amino)pyridin-2-yl)imidazo[1,2-a]pyrazin-6-yl)imidazolidin-2-one], for which the IC50 in the test on MOLM14 D835Y cells (Homo sapiens, MOLM-14, 48 h) is 9 nM; against FLT3, 1 nM.
